In US20180317487A1, “METHOD OF CONTROLLING GROWTH OF ALS-TOLERANT PLANTS” (ROTAM AGROCHEM INTERNATIONAL COMPANY LIMITED, priority 2015, published 2018):

What was measured:
ALS-tolerant plants = experiment: Review of the spray test data, ALS-tolerant plants together; assay type: in vivo; settings: review of the data of Tables 5 and 6
From the text: (§1) Seeds of normal wild variety and ALS-resistant variant of each of Stellaria media, Papaver rhoeas, Matricaria chamomilla and Matricaria inodora were sown in trays of peat-based compost placed in a glasshouse to allow germination. At the cotyledon stage, four evenly sized seedlings were transplanted into each of 9 cm diameter plastic pots containing loam soil mixed with 25% by volume horticultural silver sand and further blended with coarse grit in the ratio 3:1. The resulting potting medium was supplemented with Osmacote slow-release fertilizer (16:8:9+Mg) to provide 1.4 g per 0.35 L pot.
(§2) The formulations of each of Examples C1 to C11 and 1 to 16 were applied to the seedlings by spraying. Three replicate pots were used per treatment. Prior to spraying, the plants were watered overhead. To ensure the foliage was dry, water was not applied on the day of spraying, with the last overhead watering being the day before spraying. The herbicide formulations were made up with mains tap water. The laboratory track sprayer was set up with a Lurmark O1E80 Even spray nozzle to deliver 200±20 L/ha using gear 4 and a pressure of […] (30 psi). The application rates of the active ingredients are set out in Table 5 below.
(§3) Following spraying, the plants were returned to the glasshouse and the sprayed pots were arranged in three randomized blocks. The temperature of the glasshouse ranged from 12.2° C. to 16.1° C. by day and 10.9° C. to 13.3° C. at night. The relative humidity ranged from 75% to 101 %.
(§4) Throughout the experiment, the plants were watered to maintain the soil close to the field capacity. Following herbicide treatment, the plants were watered by sub-irrigation using individual plastic dishes for each pot to avoid any risk of cross contamination.
(§5) The visual percentage of control based on a 0-100 linear scale was assessed 21 days after treatment (DAT). The linear scale ranged from 0 (no effect) to 100 (dead plants).
(§6) In Table 6, ‘Obs’ indicates an observed result and ‘Exp’ indicates the result expected from applying the Colby equation, discussed above.

[1] = tested on: wild (non-tolerant) plants; experiment: Review of the spray test data, wild plants together; assay type: in vivo; settings: review of the data of Tables 5 and 6
From the text: as §1, §2, §3, §4, §5, §6

| SMILES | damage to / effect on ALS-tolerant plants (in words) (ALS-tolerant plants) | damage to wild (non-tolerant) plants (in words) [1] |
| --- | --- | --- |
| COc1nc(C)nc(N(C)C(=O)NS(=O)(=O)c2ccccc2C(=O)O)n1 [Tribenuron] | little or no effect | significantly damaging |
| COc1nc(C)nc(NC(=O)NS(=O)(=O)c2ccsc2C(=O)O)n1 [Thifensulfuron] | little or no effect | significantly damaging |
| COc1cc(OC)nc(NC(=O)NS(=O)(=O)c2cc(CNS(C)(=O)=O)ccc2C(=O)O)n1 [Mesosulfuron] | little or no effect | significantly damaging |
| COc1cc(OC)nc(NC(=O)NS(=O)(=O)N(C)S(C)(=O)=O)n1 [Amidosulfuron] | little or no effect | significantly damaging |
| COc1nc(C)nc(NC(=O)NS(=O)(=O)c2cc(I)ccc2C(=O)O)n1 [Iodosulfuron] | little or no effect | significantly damaging |
| COc1cc(OC)nc(NC(=O)NS(=O)(=O)c2ncccc2C(=O)N(C)C)n1 [Nicosulfuron] | little or no effect | significantly damaging |
| CCS(=O)(=O)c1nc2ccccn2c1S(=O)(=O)NC(=O)Nc1nc(OC)cc(OC)n1 [Sulfosulfuron] | little or no effect | significantly damaging |
| CSc1nnc(C(C)(C)C)c(=O)n1N [metribuzin, 4-amino-6-tert-butyl-4,5-dihydro-3-methylthio-1,2,4-triazin-5-one] | caused damage | caused damage |
| CCS(=O)(=O)c1cccnc1S(=O)(=O)NC(=O)Nc1nc(OC)cc(OC)n1 [Rimsulfuron] | little or no effect | significantly damaging |
| COc1cc(OC)nc(NC(=O)NS(=O)(=O)c2c(C(=O)O)c(Cl)nn2C)n1 [Halosulfuron] | little or no effect | significantly damaging |
| COc1nc(C)nc(=NC(=O)NS(=O)(=O)c2ccccc2C(=O)O)[nH]1 [Metsulfuron] | little or no effect | significantly damaging |
